Reference: patent US6489364B2, “Antiviral protease inhibitors” (priority 1997, dated 2002)
In brackets after ≈: the same amount, converted by molar mass. Read-outs that look alike come from different tables or passages of the source.

How the values were obtained:
purified HIV proteinase = target: T1, purified HIV proteinase (Human immunodeficiency virus type 1 group M subtype B, UniProt P04585); test: biochemical
T1 construct: purified HIV proteinase
Experimental: Representative compounds were tested for HIV protease activity in a spectrophotometric enzyme assay using the chromogenic substrate His-Lys-Ala-Arg-Val-Leu-p-nitro-Phe-Glu-Ala-Nle-Ser-amide and purified HIV proteinase. The rate of cleavage is followed by continuously registering the change in absorbance at 300 nm. […]

HIV-1 = HIV-1 infected MT4 cell culture, XTT assay; assay type: cell-based
Experimental: Compounds are also tested for HIV protease activity in cell culture. MT4 cells grown in RPMI 1640 cell culture medium including 10% fetal calf serum are infected with 10 TCID HIV-1 per 2×10^5 cells and cultured for 6 days. XTT is added and the amount of XTT formazan produced in the following 6 hours represents the number of surviving cells. Results are expressed as the ED50, that is the concentration in μg/ml of the compound of the invention which suppresses viral replication by 50%.

[1] = Human immunodeficiency virus 1, MT4, 144 h
[2] = values in parentheses, affinity constant, read-out: (Ki μM)
[3] = Human immunodeficiency virus 1, 144 h, second part of Table 1, head EC50, MT4 cells, HIV-1, 6 days, XTT, read-out: EC50

| Structure (SMILES) | Ki (purified HIV proteinase) [nM] | EC50 (HIV-1; [1]) [µg/mL] | Ki (purified HIV proteinase; [2]) [nM] | EC50 (HIV-1; [3]) [µg/mL] | Ki (purified HIV proteinase; read-out: (Ki μM)) [nM] |
| --- | --- | --- | --- | --- | --- |
| CNC(=O)[C@@H](NC(=O)[C@H](OCc1ccc(-c2ccsc2)cc1)[C@H](O)[C@@H](O)[C@@H](OCc1ccc(-c2ccsc2)cc1)C(=O)N[C@H](C(=O)NC)C(C)C)C(C)C [Example 15, N1,N6-di[(1S)-2-methyl-1-(methylcarbamoyl)propyl]-(2R,3R,4R,5R)-2,5-di[4-(3-thienyl)benzyloxy]-3,4-dihydroxyhexanediamide] | 1.2 | 0.03 (≈ 0.0385 µM) |  |  |  |
| CNC(=O)C(NC(=O)C(OCc1ccc(F)cc1F)C(O)C(O)C(OCc1ccc(F)cc1F)C(=O)NC(C(=O)NC)C(C)C)C(C)C [Example 20, N1,N6-di[(1S)-2-methyl-1-(methylcarbamoyl)propyl]-(2R,3R,4R,5R)-2,5-di[4-(2,4-difluorobenzyl)oxy]-3,4-dihydroxyhexanediamide] |  |  | 0.1 | 0.9 (≈ 1.31 µM) |  |
| CNC(=O)[C@@H](NC(=O)[C@H](OCc1ccc(/C=C/C(=O)OC)cc1)[C@H](O)[C@@H](O)[C@@H](OCc1ccc(/C=C/C(=O)OC)cc1)C(=O)N[C@H](C(=O)NC)C(C)C)C(C)C [Example 31] | 0.09 | 0.3 (≈ 0.383 µM) |  |  |  |
| CNC(=O)[C@@H](NC(=O)[C@H](OCc1ccccc1)[C@H](O)[C@@H](O)[C@@H](OCc1ccccc1)C(=O)N[C@H](C(=O)NC)c1ccccc1)c1ccccc1 [Example 16, N1,N6-di[(1S)-1-phenyl-1-(methylcarbamoyl)methyl]-(2R,3R,4R,5R)-2,5-di(benzyloxy)-3,4-dihydroxyhexanediamide] |  | 1 (≈ 1.46 µM) |  |  | 2.3 |
| CCOC1=C(c2ccc(CO[C@@H](C(=O)N[C@H](C(=O)NC)C(C)C)[C@H](O)[C@@H](O)[C@@H](OCc3ccc(C4=C(OCC)C(=O)CCC4)cc3)C(=O)N[C@H](C(=O)NC)C(C)C)cc2)CCCC1=O [Example 32] |  |  | 0.3 | 0.2 (≈ 0.224 µM) |  |
| CNC(=O)C(NC(=O)C(OCc1ccccc1F)C(O)C(O)C(OCc1ccccc1F)C(=O)NC(C(=O)NC)C(C)C)C(C)C [Example 19, N1,N6-di[(1S)-2-methyl-1-(methylcarbamoyl)propyl]-(2R,3R,4R,5R)-2,5-di[4-(2-fluorobenzyl)oxy]-3,4-dihydroxyhexanediamide] |  |  | 0.5 | 0.8 (≈ 1.23 µM) |  |
| O=C(N[C@H]1c2ccccc2C[C@H]1O)[C@H](OCc1ccccc1F)[C@H](O)[C@@H](O)[C@@H](OCc1ccccc1F)C(=O)N[C@H]1c2ccccc2C[C@H]1O [Example 12, N1,N6-di[(1S,2R)-2-hydroxy-2,3-dihydro-1H-1-indenyl]-(2R,3R,4R,5R)-2,5-di(2-fluorobenzyloxy)-3,4-dihydroxyhexanediamide] |  |  | 0.13 | 0.04 (≈ 0.0581 µM) |  |
| O=C(N[C@H]1c2ccccc2C[C@H]1O)[C@H](OCc1ccc(F)cc1)[C@H](O)[C@@H](O)[C@@H](OCc1ccc(F)cc1)C(=O)N[C@H]1c2ccccc2C[C@H]1O [Example 13, N1,N6-di[(1S,2R)-2-hydroxy-2,3-dihydro-1H-1-indenyl]-(2R,3R,4R,5R)-2,5-di(4-fluorobenzyloxy)-3,4-dihydroxyhexanediamide] |  |  | 0.07 | 0.2 (≈ 0.29 µM) |  |
